Measured values as given in patent US20100311729A1, “Substituted imidazopyridazines and pyrrolopyrimidines as lipid kinase inhibitors” (priority 2007, published 2010).
pIC50: −log10 of the molar value.

Tests used:
Format in all cases: biochemical
PI3K alfa = biological target: T1, PI3K alfa (Homo sapiens, UniProt P42336); assay: PI3 kinase assay (Kinase-Glo luminescence), PI3K alfa; settings: Enzymatic Data; read-out: PI3K alfa IC50 [umol]
T1 construct: for the p110-a subunit (with a deletion of the first 20 amino acids); His tag (C); made in house; host or cells: baculovirus; Tn5 (Trichoplusia ni) or TiniPro insect cells
Outline: (§1)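 Recombinant PI3K constructs (alfa 10 nM, delta 10 nM, gamma 150 nM) with 1 μM ATP and 10 μg/mL phosphatidylinositol in Tris pH 7.5, MgCl2, NaCl, CHAPS, DTT; 60 min (alfa, delta) or 120 min (gamma) at room temperature. ATP depletion read by Kinase-Glo luminescence; IC50 from 4-parameter logistic fit over 8 concentrations.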

PI3K beta = biological target: T2, PI3K beta (Homo sapiens, UniProt P42338); assay: PI3 kinase assay (Kinase-Glo luminescence), PI3K beta; settings: Enzymatic Data; read-out: PI3K beta IC50 [umol]
T2 construct: for the full-length p110-b subunit are generated and fused by overlapping PCR; His tag (C); made in house; host or cells: baculovirus; Tn5 (Trichoplusia ni) or TiniPro insect cells
Outline: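 PI3Kβ (25 nM, BV-949) with 10 μg/mL phosphatidylinositol in Tris pH 7.5/MgCl2/NaCl/CHAPS/DTT buffer; reaction started with 1 μM ATP, 60 min at room temperature. ATP depletion read by Kinase-Glo luminescence; 8-point dilutions, IC50 by four-parameter logistic fit.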

PI3K gamma = biological target: T3, PI3K gamma (Homo sapiens, UniProt P48736); assay: PI3 kinase assay (Kinase-Glo luminescence), PI3K gamma; settings: Enzymatic Data; read-out: PI3K gamma IC50 [umol]
T3 construct: PI3Kγ BV-950 p110g(D144aa)-C-Term His Tag; His tag (C); made in house; host or cells: construct from the Roger Williams lab (MRC LMB) in pVL1393; baculovirus; Tn5 (Trichoplusia ni) or TiniPro insect cells
Outline: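 Kinase-Glo luminescence assay with 1 μM ATP and 10 μg/mL phosphatidylinositol (final), reaction started by ATP addition. IC50 from 4-parameter logistic fit of percent inhibition at 8 compound concentrations (usually 10 down to 0.003 […]).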

PI3K delta = biological target: T4, PI3K delta (Homo sapiens, UniProt O00329); assay: PI3 kinase assay (Kinase-Glo luminescence), PI3K delta; settings: Enzymatic Data; read-out: PI3K delta IC50 [umol]
T4 construct: for the full-length p110-d subunit are generated and fused by overlapping PCR; His tag (C); made in house; host or cells: baculovirus; Tn5 (Trichoplusia ni) or TiniPro insect cells
Outline: as §1

T3 sequence (P48736 144-1102 limits assumed): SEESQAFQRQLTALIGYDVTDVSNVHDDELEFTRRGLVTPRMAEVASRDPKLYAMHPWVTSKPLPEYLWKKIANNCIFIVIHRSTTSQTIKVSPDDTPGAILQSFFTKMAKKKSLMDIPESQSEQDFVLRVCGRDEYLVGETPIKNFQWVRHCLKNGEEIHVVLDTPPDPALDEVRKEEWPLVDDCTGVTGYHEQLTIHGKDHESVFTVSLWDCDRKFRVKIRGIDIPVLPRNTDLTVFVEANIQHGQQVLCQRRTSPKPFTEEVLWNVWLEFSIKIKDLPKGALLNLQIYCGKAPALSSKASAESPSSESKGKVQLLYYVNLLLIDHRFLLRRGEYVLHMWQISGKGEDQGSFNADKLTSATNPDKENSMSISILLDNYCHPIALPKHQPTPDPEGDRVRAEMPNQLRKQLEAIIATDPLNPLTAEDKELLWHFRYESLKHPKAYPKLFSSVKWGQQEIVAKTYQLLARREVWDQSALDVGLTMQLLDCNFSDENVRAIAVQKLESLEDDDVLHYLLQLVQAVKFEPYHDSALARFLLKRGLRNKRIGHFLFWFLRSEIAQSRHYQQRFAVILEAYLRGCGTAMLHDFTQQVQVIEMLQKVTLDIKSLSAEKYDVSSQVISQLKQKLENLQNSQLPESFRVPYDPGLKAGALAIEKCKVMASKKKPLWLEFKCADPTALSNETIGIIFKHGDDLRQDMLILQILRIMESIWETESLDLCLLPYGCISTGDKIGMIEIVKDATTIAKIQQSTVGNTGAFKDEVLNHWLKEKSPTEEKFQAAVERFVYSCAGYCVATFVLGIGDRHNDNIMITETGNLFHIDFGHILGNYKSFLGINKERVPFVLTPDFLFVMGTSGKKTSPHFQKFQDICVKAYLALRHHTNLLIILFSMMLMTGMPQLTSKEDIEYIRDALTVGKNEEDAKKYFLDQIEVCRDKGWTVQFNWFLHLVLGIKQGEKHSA
T2 sequence (P42338 with tags, fused parts or gaps limits assumed): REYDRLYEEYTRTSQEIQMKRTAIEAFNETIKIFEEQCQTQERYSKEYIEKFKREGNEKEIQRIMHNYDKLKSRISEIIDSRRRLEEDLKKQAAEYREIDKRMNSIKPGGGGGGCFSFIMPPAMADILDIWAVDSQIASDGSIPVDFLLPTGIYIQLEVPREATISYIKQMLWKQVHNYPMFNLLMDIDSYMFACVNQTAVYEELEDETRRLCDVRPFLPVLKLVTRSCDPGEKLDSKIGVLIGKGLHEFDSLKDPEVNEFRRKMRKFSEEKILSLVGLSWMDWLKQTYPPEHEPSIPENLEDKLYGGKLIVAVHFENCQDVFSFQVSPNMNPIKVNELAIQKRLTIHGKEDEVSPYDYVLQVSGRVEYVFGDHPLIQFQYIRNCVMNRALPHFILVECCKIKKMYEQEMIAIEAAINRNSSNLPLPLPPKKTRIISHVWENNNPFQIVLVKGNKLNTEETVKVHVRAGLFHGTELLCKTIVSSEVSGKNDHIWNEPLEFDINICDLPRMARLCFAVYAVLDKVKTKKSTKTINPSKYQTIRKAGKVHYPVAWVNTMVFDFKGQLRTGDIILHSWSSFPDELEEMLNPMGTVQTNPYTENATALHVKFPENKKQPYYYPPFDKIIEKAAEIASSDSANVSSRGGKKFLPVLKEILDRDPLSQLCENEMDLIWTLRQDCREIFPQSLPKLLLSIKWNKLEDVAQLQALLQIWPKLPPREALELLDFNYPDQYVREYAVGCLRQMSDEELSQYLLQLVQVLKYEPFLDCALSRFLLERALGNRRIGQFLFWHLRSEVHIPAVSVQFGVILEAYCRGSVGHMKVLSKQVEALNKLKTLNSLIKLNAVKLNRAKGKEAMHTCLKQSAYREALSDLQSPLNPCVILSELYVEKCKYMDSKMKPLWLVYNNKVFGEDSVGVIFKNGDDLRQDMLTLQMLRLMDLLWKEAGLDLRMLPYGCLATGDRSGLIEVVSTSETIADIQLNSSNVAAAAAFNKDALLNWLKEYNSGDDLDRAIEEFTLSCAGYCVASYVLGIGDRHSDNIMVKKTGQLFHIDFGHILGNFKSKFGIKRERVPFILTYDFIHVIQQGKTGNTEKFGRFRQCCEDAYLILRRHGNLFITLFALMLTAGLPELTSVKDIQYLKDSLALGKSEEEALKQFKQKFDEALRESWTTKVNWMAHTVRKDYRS
T4 sequence (O00329 with tags, fused parts or gaps limits assumed): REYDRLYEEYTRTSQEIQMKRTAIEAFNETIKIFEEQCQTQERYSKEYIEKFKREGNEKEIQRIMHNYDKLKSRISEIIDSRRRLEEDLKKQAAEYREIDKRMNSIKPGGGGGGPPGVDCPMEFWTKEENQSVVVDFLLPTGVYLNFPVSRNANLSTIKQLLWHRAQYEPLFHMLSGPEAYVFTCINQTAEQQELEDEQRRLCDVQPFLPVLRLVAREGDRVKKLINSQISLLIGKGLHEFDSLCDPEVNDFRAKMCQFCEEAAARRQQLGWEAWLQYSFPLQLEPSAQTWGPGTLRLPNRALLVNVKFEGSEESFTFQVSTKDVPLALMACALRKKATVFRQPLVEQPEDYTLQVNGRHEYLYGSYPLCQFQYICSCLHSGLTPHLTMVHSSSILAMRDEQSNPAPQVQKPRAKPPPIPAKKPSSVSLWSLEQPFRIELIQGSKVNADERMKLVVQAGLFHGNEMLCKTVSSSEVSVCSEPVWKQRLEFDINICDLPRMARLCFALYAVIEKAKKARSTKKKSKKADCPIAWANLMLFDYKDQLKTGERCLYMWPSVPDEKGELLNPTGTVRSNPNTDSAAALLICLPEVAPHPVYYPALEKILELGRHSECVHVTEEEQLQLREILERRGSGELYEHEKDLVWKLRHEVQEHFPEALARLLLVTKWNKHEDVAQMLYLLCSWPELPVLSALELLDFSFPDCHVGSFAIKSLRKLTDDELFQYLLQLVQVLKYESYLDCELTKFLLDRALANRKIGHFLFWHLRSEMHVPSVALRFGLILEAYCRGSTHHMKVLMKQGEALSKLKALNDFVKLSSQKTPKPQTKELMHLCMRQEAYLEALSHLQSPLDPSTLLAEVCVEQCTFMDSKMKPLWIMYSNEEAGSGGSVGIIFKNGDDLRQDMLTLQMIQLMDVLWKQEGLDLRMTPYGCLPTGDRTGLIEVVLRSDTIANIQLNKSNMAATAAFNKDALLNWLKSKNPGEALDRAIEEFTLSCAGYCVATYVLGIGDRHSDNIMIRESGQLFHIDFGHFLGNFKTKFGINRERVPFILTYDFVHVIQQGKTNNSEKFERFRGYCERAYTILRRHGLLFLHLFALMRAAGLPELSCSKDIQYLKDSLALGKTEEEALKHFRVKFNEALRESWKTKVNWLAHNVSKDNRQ
T1 sequence (P42336 with tags, fused parts or gaps limits assumed): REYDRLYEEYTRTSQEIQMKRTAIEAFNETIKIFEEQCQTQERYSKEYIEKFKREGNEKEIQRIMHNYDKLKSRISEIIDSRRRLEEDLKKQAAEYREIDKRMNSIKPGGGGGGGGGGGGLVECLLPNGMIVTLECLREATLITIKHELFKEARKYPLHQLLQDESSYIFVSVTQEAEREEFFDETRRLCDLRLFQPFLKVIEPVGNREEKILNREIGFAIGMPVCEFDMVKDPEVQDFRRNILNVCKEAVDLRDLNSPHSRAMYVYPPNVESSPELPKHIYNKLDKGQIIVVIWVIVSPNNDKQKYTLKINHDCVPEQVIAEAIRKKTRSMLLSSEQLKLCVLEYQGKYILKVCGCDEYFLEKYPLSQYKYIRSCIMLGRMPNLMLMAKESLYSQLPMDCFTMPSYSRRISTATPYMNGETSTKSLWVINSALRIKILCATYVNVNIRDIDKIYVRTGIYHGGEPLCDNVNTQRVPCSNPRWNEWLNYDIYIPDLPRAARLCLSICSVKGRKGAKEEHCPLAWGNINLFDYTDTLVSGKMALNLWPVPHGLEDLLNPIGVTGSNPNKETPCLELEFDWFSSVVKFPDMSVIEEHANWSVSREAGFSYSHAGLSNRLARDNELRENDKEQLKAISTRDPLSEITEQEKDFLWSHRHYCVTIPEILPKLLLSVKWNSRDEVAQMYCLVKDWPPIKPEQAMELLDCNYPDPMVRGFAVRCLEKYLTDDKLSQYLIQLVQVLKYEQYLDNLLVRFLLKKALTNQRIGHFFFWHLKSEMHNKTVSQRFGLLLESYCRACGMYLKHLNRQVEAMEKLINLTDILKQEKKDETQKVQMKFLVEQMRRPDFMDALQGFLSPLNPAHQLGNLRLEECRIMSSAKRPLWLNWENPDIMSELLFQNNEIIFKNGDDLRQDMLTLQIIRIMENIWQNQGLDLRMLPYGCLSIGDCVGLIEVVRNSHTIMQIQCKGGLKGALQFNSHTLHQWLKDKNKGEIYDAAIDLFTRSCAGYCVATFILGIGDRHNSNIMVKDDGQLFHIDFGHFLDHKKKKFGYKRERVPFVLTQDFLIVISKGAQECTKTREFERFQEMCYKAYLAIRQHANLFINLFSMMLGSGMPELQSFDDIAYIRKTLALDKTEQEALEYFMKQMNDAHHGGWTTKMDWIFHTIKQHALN

Row | Compound | pIC50 (PI3K alfa) | pIC50 (PI3K beta) | pIC50 (PI3K gamma) | pIC50 (PI3K delta)
1 | CC(C)(C)OC(=O)NCCOc1ccc(-c2ccc3ncc(-c4cnc(N)c(C(F)(F)F)c4)n3n2)cc1 [Example 73, (2-{4-[3-(6-Amino-5-trifluoro-methyl-pyridin-3-yl)-imidazo [1,2-b]pyridazin-6-yl]-phenoxy}-ethyl)-carbamic acid tert-butyl ester] | 6.14 | < 5.04 | < 5.04 | 5.40
2 | NCCOc1ccc(-c2ccc3ncc(-c4cnc(N)c(C(F)(F)F)c4)n3n2)cc1 [Example 74, 5-{6-[4-(2-Amino-ethoxy)-phenyl]-imidazo [1,2-b]pyridazin-3-yl}-3-trifluoro-methyl-pyridin-2-ylamine] | 6.80 | 6.83 | 5.84 | 6.79
3 | CC(=O)NCCn1cc(-c2ccc3ncc(-c4cnc(N)c(C(F)(F)F)c4)n3n2)ccc1=O [Example 76, N-(2-{5-[3-(6-Amino-5-trifluoro-methyl-pyridin-3-yl)-imidazo [1,2-b]pyridazin-6-yl]-2-oxo-2H-pyridin-1-yl}-ethyl)-acetamide] | 6.80 | 6.17 | 5.49 | 6.82
4 | COc1cccc(-c2ccc3ncc(-c4cnc(N)c(C(F)(F)F)c4)n3n2)c1 [Example 77, 5-[6-(3-Methoxy-phenyl)-imidazo [1,2-b]pyridazin-3-yl]-3-trifluoro-methyl-pyridin-2-ylamine] | 6.72 | 5.95 | 5.59 | 6.21
5 | COc1cccc(-c2ccc3ncc(-c4cnc5[nH]ccc5c4)n3n2)c1 [Example 78, 6-(3-Methoxy-phenyl)-3-{1H-pyrrolo [2.3-b]pyridin-5-yl)-imidazo [1,2-b] pyridazine] | 6.89 | 5.69 | 5.39 | 5.98
6 | Nc1ncc(-c2ccc3ncc(-c4ccc(OCCn5cccn5)cc4)n3n2)cc1C(F)(F)F [Example 88, 5-{3-[4-(2-Pyrazol-1-yl-ethoxy)-phenyl]-imidazo[1,2-b]pyridazin-6-yl}-3-trifluoro-methyl-pyridin-2-ylamine] | 6.89 | 6.00 | 5.61 | 6.83
7 | Nc1ncc(-c2cnc3ccc(-c4ccc(OCCCN5CCCC5=O)c(F)c4)nn23)cc1C(F)(F)F [Example 90, 1-(3-{4-[3-(6-Amino-5-trifluoro-methyl-pyridin-3-yl)-imidazo [1,2-b]pyridazin-6-yl]-2-fluoro-phenoxy}-propyl)-pyrrolidin-2-one] | 5.94 | < 5.04 | 5.33 | 5.95
8 | O=C1CCCN1CCCOc1ccc(-c2ccc3ncc(-c4cnc5[nH]ccc5c4)n3n2)cc1F [Example 91, 1-(3-{2-Fluoro-4-[3-(1H-pyrrolo [2,3-b]pyridin-5-yl)-imidazo [1,2-b]pyridazin-6-yl]-phenoxy}-propyl)-pyrrolidin-2-one] | 6.81 | 5.12 | 5.18 | 6.28
9 | Nc1ncc(-c2cnc3ccc(-c4ccc(OCCn5cccn5)cc4)nn23)cc1C(F)(F)F [Example 92, 5-{6-[4-(2-Pyrazol-1-yl-ethoxy)-phenyl]-imidazo [1,2-b]pyridazin-3-yl}-3-trifluoro-methyl-pyridin-2-ylamine] | 6.24 | 5.39 | < 5.04 | 5.91
10 | c1cnn(CCOc2ccc(-c3ccc4ncc(-c5cnc6[nH]ccc6c5)n4n3)cc2)c1 [Example 93, 6-[4-(2-Pyrazol-1-yl-ethoxy)-phenyl]-3-(1H-pyrrolo [2,3-b]pyridin-5-yl)-imidazo [1,2-b] pyridazine] | 6.80 | 5.16 | 5.23 | 5.89

Now those with a higher pIC50 (PI3K alfa), led by results:

Row | pIC50 (PI3K alfa) | pIC50 (PI3K beta) | pIC50 (PI3K gamma) | pIC50 (PI3K delta) | Compound
11 | 7.12 | 6.19 | 5.51 | 6.87 | CC(=O)NCCOc1ccc(-c2ccc3ncc(-c4cnc(N)c(C(F)(F)F)c4)n3n2)cc1 [Example 75, N-(2-{4-[3-(6-Amino-5-trifluoro-methyl-pyridin-3-yl)-imidazo [1,2-b]pyridazin-6-yl]-phenoxy}-ethyl)-acetamide]
12 | 7.82 | 6.68 | 5.94 | 7.24 | Nc1ncc(-c2ccc3ncc(-c4ccc(C(=O)NCCN5CCOCC5)cc4)n3n2)cc1C(F)(F)F [Example 80, 4-[6-(6-Amino-5-trifluoro-methyl-pyridin-3-yl)-imidazo [1,2-b]pyridazin-3-yl]-N-(2-morpholin-4-yl-ethyl)-benzamide]
13 | 7.68 | 7.09 | 6.20 | 7.89 | Nc1ncc(-c2ccc3ncc(-c4ccc(C(=O)NCCCN5CCOCC5)cc4)n3n2)cc1C(F)(F)F [Example 81, 4-[6-(6-Amino-5-trifluoromethyl-pyridin-3-yl)-imidazo [1,2-b]pyridazin-3-yl]-N-(3-morpholin-4-yl-propyl)-benzamide]
14 | 7.74 | 6.77 | 6.28 | 8.15 | CC(=O)N1CCN(C(=O)c2ccc(-c3cnc4ccc(-c5cnc(N)c(C(F)(F)F)c5)nn34)cc2)CC1 [Example 82, 1-(4-{4-[6-(6-Amino-5-trifIuoro-methyl-pyridin-3-yl)-imidazo [1,2-b]pyridazin-3-yl]-benzoyl}-piperazin-1-yl)-ethanone]
15 | 7.57 | 6.78 | 6.25 | 7.64 | CN(C)C(=O)c1ccc(CNC(=O)c2ccc(-c3cnc4ccc(-c5cnc(N)c(C(F)(F)F)c5)nn34)cc2)cc1 [Example 83, N-(4-N-dimethylacetyl-benzyl)-4-[6-(6-amino-5-trifluoro-methyl-pyridin-3-yl)-imidazo [1,2-b]pyridazin-3-yl]-benzamide]
16 | 7.06 | 5.26 | 5.49 | 6.51 | CC(=O)c1ccc(CNC(=O)c2ccc(-c3cnc4ccc(-c5cnc(N)c(C(F)(F)F)c5)nn34)cc2)cc1 [Example 84, N-(4-Acetyl-benzyl)-4-[6-(6-amino-5-trifluoromethyl-pyridin-3-yl)-imidazo [1,2-b]pyridazin-3-yl]-benzamide]
17 | 7.72 | 6.47 | 6.89 | 7.82 | Nc1ncc(-c2ccc3ncc(-c4ccc(C(=O)N5CCN(Cc6ccccn6)CC5)cc4)n3n2)cc1C(F)(F)F [Example 85, {4-[6-(6-Amino-5-trifluoromethyl-pyridin-3-yl)-imidazo[1,2-b]pyridazin-3-yl]-phenyl}-(4-pyridin-2-ylmethyl-piperazin-1-yl)-methanone]
18 | 7.03 | 6.15 | 6.95 | 7.01 | CC(C)C(=O)NCCOc1ccc(-c2ccc3ncc(-c4cnc(N)c(C(F)(F)F)c4)n3n2)cc1 [Example 86, N-(2-{4-[3-(6-Amino-5-trifluoro-methyl-pyridin-3-yl)-imidazo [1,2-b]pyridazin-6-yl]-phenoxy}-ethyl)-isobutyramide]
19 | 7.54 | 8.00 | 5.91 | 7.74 | CNc1ncc(-c2cnc3ccc(-c4cnc(N)c(C(F)(F)F)c4)nn23)cn1 [Example 87, {5-[6-(6-Amino-5-trifluoro-methyl-pyridin-3-yl)-imidazo [1,2-b]pyridazin-3-yl]-pyrimidin-2-yl)-methylamine]
20 | 7.13 | 5.56 | 6.27 | 7.06 | Nc1ncc(-c2cnc3ccc(-c4ccc(OCCCN5CCCC5=O)cc4)nn23)cc1C(F)(F)F [Example 89, 1-(3-{4-[3-(6-Amino-5-trifluoro-methyl-pyridin-3-yl)-imidazo [1,2-b]pyridazin-6-yl]-phenoxy}-propyl)-pyrrolidin-2-one]
21 | 7.21 | 6.36 | 5.67 | 6.84 | Nc1ncc(-c2cnc3ccc(-c4ccc(OCCN5CCCC5=O)c(F)c4)nn23)cc1C(F)(F)F [Example 94, 1-(2-{4-[3-(6-Amino-5-trifluoro-methyl-pyridin-3-yl)-imidazo [1,2-b]pyridazin-6-yl]-2-fluoro-phenoxy}-ethyl)-pyrrolidin-2-one]
22 | 8.22 | 7.23 | 6.03 | 7.70 | Nc1ncc(-c2ccc3ncc(-c4ccc(C(=O)O)c(F)c4)n3n2)cc1C(F)(F)F [Example 95, 4-[6-(6-Amino-5-trifluoro-methyl-pyridin-3-yl)-imidazo [1,2-b]pyridazin-3-yl]-2-fluoro-benzoic acid]
